According to patent US20210348119A1, “COMPOSITIONS AND METHODS FOR CELL CULTURE” (The United States of America as Represented By The …, priority 2018, published 2021):
“And” between values parts separate entries of the source, which are not always exact repeats. Identical values can stand only once. Like-named read-outs stand apart in the source and are kept apart here.

What was measured:
H9 cells [1] = test: qHTS for survival of dissociated H9 cells (CellTiter-Glo, 24 hours after seeding); format: cell-based, human
Excerpt: FIG. 2 schematically illustrates qHTS procedure.
All the screed compounds were received pre-plated at the pre-determined concentrations. […] Curve classification is explained in Huang et al. “Chemical genomics profiling of environmental chemical modulation of human nuclear receptors” Environ. Health. Perspect.

H9 cells [2] = test: Combinatorial matrix screening for synergistic effects on cell survival; format: cell-based, human; settings: 10×10 matrix, normalized to 10 μM Y-27632
Description: Combinatorial matrix screening was performed to identify the compounds with synergistic effects on cell survival. Focusing on the compounds with different mechanisms of action, 29 compounds were selected for combinational matrix screening, resulting in 812 sets of 10×10 checkerboard matrix experiments (data not shown), four of which are illustrated in FIG. 9. The concentrations of the compounds for combinational matrix screening were optimized based on the slope and potency (AC50) derived from single-agent qHTS dose-response curves, so that the matrix screen covered a wide range of biological effect observed in the cell viability assay. […] The numerals in each 10×10 matrix show the maximum survival achieved with the indicated combinations or single agents. The maximum survival achieved by each pair of compounds is represented by the highest numbers in each 10×10 matrix, the examples of which are shown in FIG. 9. The bottom matrices depict the synergy matrix calculated using highest-single agent (HSA) model. The HSA synergy assesses the pro-survival benefit of compound combination compared to single agent alone, which was computed as the difference between cell survival out of combination and that from the best single agent at each tested concentration. Synergy is defined as the difference between the combination and max response with single agent (synergy=combination max (single agent A, single agent B).

[3] = H9 cell survival normalized to 10 μM Y-27632 (taken to be 100%)
[4] = H9 cell survival, normalized to 10 μM Y-27632
[5] = H9 cell survival, CellTiter-Glo 24 hours after seeding; read-out: AC50 (concentration at 50% efficacy)
[6] = Homo sapiens, H9, 24 h, H9 cell survival, CellTiter-Glo 24 hours after seeding; read-out: AC50 (concentration at 50% efficacy)
[7] = Homo sapiens, H9, 24 h, read-out: Efficacy (activity range between predicted activities at zero and infinite doses, Hill equation)
[8] = Homo sapiens, H9, 24 h, read-out: Max (maximum activity value from all tested concentrations)
[9] = Homo sapiens, H9, 24 h; read-out: Efficacy (activity range between predicted activities at zero and infinite doses, Hill equation)
[10] = Homo sapiens, H9, 24 h; read-out: Max (maximum activity value from all tested concentrations)
[11] = Homo sapiens; H9 cell survival, CellTiter-Glo 24 hours after seeding; read-out: AC50 (concentration at 50% efficacy)
[12] = Homo sapiens, H9, 24 h, H9 cell survival normalized to 10 μM Y-27632 (taken to be 100%); read-out: Max (maximum activity value from all tested concentrations)
[13] = Homo sapiens, H9, 24 h, H9 cell survival, normalized to 10 μM Y-27632; read-out: Efficacy (activity range between predicted activities at zero and infinite doses, Hill equation)

Row | Compound | Max (maximum activity value from all tested concentrations) (H9 cells [1]; [3]) | Efficacy (activity range between predicted activities at zero and infinite doses, Hill equation) (H9 cells [1]; [4]) | AC50 (H9 cells [1]; [5]) | also measured
1 | Cc1ccc2c(c1)C(=O)C1(O)CCN(c3ccccc3)C1=N2 (single isomer, unassigned; (-)) [(−)-Blebbistatin] | 90.71% and 107.8% | 105 and 96 | – | synergy with Chroman 1 on cell survival (HSA model) (H9 cells [2]): lacking synergy
2 | COc1ccccc1-c1c[nH]c2ncc(-c3cncc(C(=O)N(C)C)c3)cc12 [PPY A] | 37.42% | 41.9 | 2.93 µM | –
3 | CCCCCCCCCCCCCC(=O)O[C@@H]1[C@@H](C)[C@@]2(O)[C@@H](C=C(CO)C[C@]3(O)C(=O)C(C)=C[C@@H]23)[C@@H]2C(C)(C)[C@]12OC(C)=O [Phorbol 12-myristate 13-acetate] | 48.49% | 36.8 | 0.21 µM | –
4 | CC(N/C(=N\C#N)Nc1ccncc1)C(C)(C)C (stereo not drawn) [Pinacidil] | – | – | – | AC50 (H9 cells [1]; [6]): 21.1 µM; Emax (H9 cells [1]; [7]): 86.4%; Emax (H9 cells [1]; [8]): 83.1%
5 | CC(C)(C)c1nc2c3cc[nH]c(=O)c3c3cc(F)ccc3c2[nH]1 [Pyridone 6] | 28.9% | 0 | – | –
6 | O=S(=O)(NCC1CC1)c1ccc(Nc2nccc(N3CCCc4cc(O)ccc43)n2)cc1 [Pyrintegrin] | 27.85% | 31 | 3.29 µM | –
7 | CC(C)[C@H](NC(=O)c1ccc2ccccc2n1)C(=O)N[C@@H](CC(=O)O)C(=O)COc1c(F)cccc1F [Q-VD-OPh hydrate] | 93.54% | 85.9 | 1.17 µM | synergy with Chroman 1 on cell survival (HSA model) (H9 cells [2]): synergistic with Chroman 1
8 | O=C(NCc1cccc(O)c1)Nc1nc(-c2ccncc2)cs1 [RKI-1447] | 103.2% | 106 | 0.083 µM | –
9 | Cc1cc(Nc2cc(NC(=O)c3c(Cl)cccc3Cl)ccn2)nc(N)n1 [RO495] | 89.28% | 73.1 | 4.69 µM | –
10 | O=C(Nc1ccc2[nH]ncc2c1)C1CCC1 [Rhodblock 6] | 61.61% | 67.9 | 23.3 µM | –
11 | N#CC[C@H](C1CCCC1)n1cc(-c2ncnc3[nH]ccc23)cn1 [Ruxolitinib, Freebase, Ruxolitinib] | 87.05% | 48 | – | AC50 (H9 cells [1]; [6]): 10.4 µM
12 | N#CC[C@H](C1CCCC1)n1cc(-c2ncnc3[nH]ccc23)cn1 [Ruxolitinib] | – | – | 8.26 µM and 11.8 µM | –
13 | Cl.O=c1[nH]ccc2cc(OC3CCNCC3)ccc12 [SAR407899 (hydrochloride)] | 116.3% | 112 | 2.93 µM | –
14 | C[S+]([O-])c1ccc(-c2nc(-c3ccncc3)c(-c3ccc(F)cc3)[nH]2)cc1 (stereo not drawn) [SB-203580] | – | – | – | Emax (H9 cells [1]; [9]): 37.4%; Emax (H9 cells [1]; [10]): 35.6%; AC50 (H9 cells [1]; [11]): 15.2 µM
15 | CCn1c(-c2nonc2N)nc2cncc(CNC3CCNCC3)c21 [SB-747651-A] | 78.33% and 111.1% | 35.5 and 68.7 | – | –
16 | CN(C)CCOc1cc(-c2cn[nH]c2)ccc1NC(=O)C1COc2ccccc2O1 (stereo not drawn) [SR-3677] | – | – | 0.662 µM | Emax (H9 cells [1]; [12]): 122%; AC50 (H9 cells [1]; [6]): 0.585 µM; Emax (H9 cells [1]; [13]): 118%
17 | O=S(=O)(N=Cc1c(O)ccc2ccccc12)c1cccs1 [STF-083010] | 66.46% | 82.4 | 26.4 µM | –
18 | Cc1cc2c(cc1CC(=O)c1sccc1S(=O)(=O)[N-]c1onc(C)c1Cl)OCO2.[Na+] [Sitaxenian sodium] | 21.69% | 27.1 | 26.1 µM | –

Row | Compound | Max (maximum activity value from all tested concentrations) (H9 cells [1]; [3]) | Efficacy (activity range between predicted activities at zero and infinite doses, Hill equation) (H9 cells [1]; [4]) | AC50 (H9 cells [1]; [5]) | also measured
19 | CN1CCN(c2nc(C3=C(c4c[nH]c5ccccc45)C(=O)NC3=O)c3ccccc3n2)CC1 [Sotrastaurin] | – | – | – | Emax (H9 cells [1]; [12]): 35.9%; AC50 (H9 cells [1]; [6]): 16.6 µM; Emax (H9 cells [1]; [13]): 36.5%
20 | Brc1c(Br)c(Br)c2n[nH]nc2c1Br [TBB] | 28.55% | 33.7 | 32.6 µM | –
21 | O=C(O)Cc1cc(I)c(Oc2cc(I)c(O)c(I)c2)c(I)c1 [TETRAC] | – | – | – | Emax (H9 cells [1]; [12]): 34.2%; AC50 (H9 cells [1]; [6]): 14.7 µM; Emax (H9 cells [1]; [13]): 35.8%
22 | Cc1cnc(Nc2ccc(OCCN3CCCC3)cc2)nc1Nc1cccc(S(=O)(=O)NC(C)(C)C)c1 [TG-101348] | – | – | – | Emax (H9 cells [1]; [12]): 55.1%; AC50 (H9 cells [1]; [6]): 33.2 µM; Emax (H9 cells [1]; [13]): 67.3%
23 | O=C(NCc1ccccc1)c1csc(Nc2ccncn2)n1 [Thiazovivin] | 88.3% | 80.6 | 0.414 µM | –
24 | C=C(NC(=O)C(=C)NC(=O)c1csc(C2=N[C@@H]3c4csc(n4)[C@H]4NC(=O)c5csc(n5)[C@H]([C@](C)(O)[C@@H](C)O)NC(=O)[C@H]5CSC(=N5)/C(=C/C)NC(=O)[C@H]([C@@H](C)O)NC(=O)c5csc(n5)[C@]3(CC2)NC(=O)[C@H](C)NC(=O)C(=C)NC(=O)[C@H](C)NC(=O)[C@H]([C@@H](C)CC)N[C@@H]2C=Cc3c([C@H](C)O)cc(nc3[C@H]2O)C(=O)O[C@@H]4C)n1)C(N)=O [Thiostrepton from Streptomyces azureus, Thiostrepton] | – | – | – | AC50 (H9 cells [1]; Homo sapiens, H9, 24 h, read-out: AC50 (concentration at 50% efficacy)): 14.7 µM; Emax (H9 cells [1]; [7]): 30.2%; Emax (H9 cells [1]; [8]): 28.4%
25 | Nc1nc2nc[nH]c2c(=S)[nH]1 [Tioguanine] | – | – | – | Emax (H9 cells [1]; [12]): 21.3%; Emax (H9 cells [1]; [13]): 0%
26 | CCC[C@@]1(CCc2ccccc2)CC(O)=C([C@H](CC)c2cccc(NS(=O)(=O)c3ccc(C(F)(F)F)cn3)c2)C(=O)O1 [Tipranavir] | – | – | – | Emax (H9 cells [1]; [9]): 26.5%; Emax (H9 cells [1]; [10]): 21.8%; AC50 (H9 cells [1]; [11]): 26.1 µM
27 | CCC(=O)N1CCN(c2ccc(-n3c(=O)ccc4cnc5ccc(-c6cnc7ccccc7c6)cc5c43)cc2C(F)(F)F)CC1 [Torin-1] | 27.66% | 31.2 | 10.5 µM | –
28 | CN1CCN(Cc2ccc(-c3cnc4[nH]cc(-c5ccc6[nH]ccc6c5)c4c3)cc2)CC1 [URMC-099] | – | – | – | Emax (H9 cells [1]; [12]): 27.1%; AC50 (H9 cells [1]; [6]): 5.21 µM; Emax (H9 cells [1]; [13]): 33.6%
29 | C[C@H]1[C@H](C)CC[C@]2(C(=O)O)CC[C@]3(C)C(=CC[C@@H]4[C@@]5(C)CC[C@H](O)C(C)(C)[C@@H]5CC[C@]43C)[C@H]12 [URSOLIC ACID] | – | – | – | Emax (H9 cells [1]; [12]): 22.3%; AC50 (H9 cells [1]; [6]): 0.521 µM; Emax (H9 cells [1]; [13]): 11.7%
30 | N#Cc1cc(F)cc(-c2nc(-c3ccccn3)no2)c1 [VU 0285683] | 21.28% | 0 | – | –
31 | O=C(Nc1ccc(-c2ccnc(Nc3ccc(N4CCOCC4)cc3)n2)cc1)[C@@H]1CCCN1 [XL-19] | 29.98% | 35.5 | 23.3 µM | –
32 | C[C@@H](N)c1ccc(C(=O)Nc2ccnc3[nH]ccc23)cc1 [Y-39983] | – | – | – | Emax (H9 cells [1]; [12]): 127%; Emax (H9 cells [1]; [13]): 121%
33 | Cc1sc2c(c1C)C(c1ccc(Cl)cc1)=N[C@@H](CC(=O)NCCCCNC(=O)COc1cccc3c1C(=O)N(C1CCC(=O)NC1=O)C3=O)c1nnc(C)n1-2 (stereo partly drawn) [dBETI] | 62.14% | −67.9 | 0.004 µM | –
34 | C/C=C/C(=O)C(C)C1=CC(=O)C2=C(OC34CC[C@H](O)C(C)(C)[C@@H]3CC[C@H](C)C4(C)C2)C1=O (stereo partly drawn) [podosporin A] | 26.17% | 0 | – | –
35 | c1ccc2c3c([nH]c2c1)CNCC3 [tryptoline] | – | – | – | Emax (H9 cells [1]; [12]): 27.9%; AC50 (H9 cells [1]; [6]): 0.0009 µM; Emax (H9 cells [1]; [13]): -33.1%
36 | (−)-Indolactam V | 51.21% | 45.5 | 0.833 µM | –
